# Measurements: patent US20230218657A1, “COMPOSITIONS, THEIR USES IN THERAPY AND METHODS THEREOF” (National University of Singapore, priority 2020, published 2023)
# “Also recorded” adds a separate entry of the source.
# Legend:
# Format in all cases: in vivo
# apoE-/- mice [1] = experiment: Footpad tissue edema / swelling observed macroscopically in apoE-/- mice
# From the text: (§1) To evaluate the effect of cyclodextrin on secondary lymphedema, an animal model of lymphatic insufficiency that mimics human pathophysiology of lymphedema was used, e.g adipose tissue remodeling, lipid accumulation, inflammation and fibrosis. This mouse model can be apoE lipoprotein E deficient mice. […] It is believed that this lymphatic insufficiency leads to adipose tissue expansion and then loss and fibrosis as also observed in human secondary lymphedema. To confirm this, female apoE-/- mice were treated with 2 g/kg body of cyclodextrin […] subcutaneously or vehicle alone (saline) subcutaneously every alternative day for a total of 2, 4 or 8 doses. Mice were euthanized, tissue swelling was observed macroscopically and lymphatic transport was examined by following up the transport of FITC dextran from the front footpad to the draining lymph nodes. Skin tissues was also examined histologically for lipid content (Oil red O staining).
# FIG. 1 illustrates images of footpads from female wild-type (WT) or apoE-/-mice after receiving subcutaneous injection of cyclodextrin (CD; 2 g/kg body weight) or saline (control, NT) every alternative day for a total of 4 doses and harvested when mice were 17 weeks old on high fat diet. Swelling of the footpad of the mice was observed macroscopically (arrow heads: swelling region).
# apoE-/- mice [2] = experiment: Oil red O staining of footpad skin for lipid accumulation; conditions: 2 g/kg subcutaneous, alternate days, 4 doses; female apoE-/- mice, 17 weeks old, high fat diet; vs saline
# From the text: as §1
# FIG. 2 illustrates microscopic images of female WT or apoE-/- mice after receiving subcutaneous injection of cyclodextrin (CD; 2 g/kg body weight) or saline (control, NT) every alternative day for a total of 4 doses and harvested when mice were 17 weeks old on high fat diet. Section of footpad skin were stained for neutral lipid with Oil red O (red staining) to identify lipid accumulation in the tissue.
# apoE-/- mice [3] = experiment: Lymphatic transport of FITC dextran from footpad to draining lymph node
# From the text: as §1
# FIG. 3 plots the relative fluorescence in the lymph nodes of respective female WT or apoE-/- mice after receiving subcutaneous injection of cyclodextrin (CD; 2 g/kg body weight) or Saline (control, NT) every alternative day for a total of 4 doses. The mice were harvested when the mice were 17 weeks old on high fat diet. Lymphatic drainage was assessed by measuring the transport of fluorescent dextran from the footpad (site of injection) to the draining lymph node.
# FIG. 4 plots the relative fluorescence in the lymph nodes of the respective mice under a different dosage regime.
# apoE-/- mice [4] = experiment: Total cholesterol in front footpad and plasma cholesterol
# From the text: Cyclodextrin was administrated subcutaneously alternate days.
# apoE-/- mice [5] = experiment: Masson's Trichrome staining of back skin (fibrosis, collagen deposition); conditions: 17 weeks old, particularly the 8 doses regime
# Procedure: (§2) The formulation was assessed if it can reverses some tissue changes associated with lymphedema including fibrosis and inflammation.
# Collagen was stained in blue, muscle and cytoplasm was stained in red and the nucleus was stained in black.
# apoE-/- mice [6] = experiment: CD68 immunofluorescence staining of back skin (inflammation, macrophage infiltration); conditions: 17 weeks old, particularly the 8 doses regime
# Procedure: as §2
# CD68 is a pan-macrophage marker, perilipin was used to identify adipocytes and DAPI stains for the nucleus.
# [7] = 8 doses, apoE-/- mice at 42 weeks of age (greater severity)
substance,measurement,setting,value
cyclodextrin,tissue edema / footpad swelling,"apoE-/- mice [1]; 2 g/kg subcutaneous, alternate days, 4 doses, female apoE-/- mice, 17 weeks old, high fat diet, vs saline",improved significantly tissue edema in the footpad; also recorded: decreased footpad swelling
same,tissue swelling,apoE-/- mice [1]; [7],not able to improve lymphatic function and ameliorate tissue changes such as tissue swelling
same,reducing lymphedema,"apoE-/- mice [1]; intradermal injection, animal model of lymphedema (summary statement)",effective in reducing lymphedema
same,lipid accumulation in footpad skin (Oil red O staining),apoE-/- mice [2],decreased lipid accumulation; also recorded: decreased accumulation of lipids
same,lymphatic function,"apoE-/- mice [3]; 2 g/kg subcutaneous, alternate days, 2 doses, female apoE-/- mice, 17 weeks old",improved lymphatic function but in lesser extent compared to 4 doses; also recorded: sufficient to improve lymphatic function
same,lymphatic transport / lymphatic function,"apoE-/- mice [3]; 2 g/kg subcutaneous, alternate days, 4 doses, female apoE-/- mice, 17 weeks old",completely restored lymphatic transport; also recorded: restoring completely lymphatic function; also recorded: completely restored it
same,lymphatic function,"apoE-/- mice [3]; 2 g/kg subcutaneous, alternate days, 8 doses, female apoE-/- mice, 17 weeks old, compared to 4 doses",did not further enhance lymphatic function; also recorded: did not improve further lymphatic function
same,lymphatic function,apoE-/- mice [3]; [7],not able to improve lymphatic function
same,plasma cholesterol levels,apoE-/- mice [4]; apoE-/- mice treated with cyclodextrin,does not affect plasma cholesterol levels
same,tissue cholesterol (total cholesterol in front footpad),"apoE-/- mice [4]; subcutaneous, alternate days, 4 or 8 doses, apoE-/- mice, 17 weeks old",reduces tissue cholesterol; also recorded: decreased total cholesterol levels in the front foot pad
same,fibrosis (collagen deposition) in back skin,apoE-/- mice [5],reduces fibrosis
same,"inflammation (infiltration of macrophages in adipose tissue, CD68) in back skin",apoE-/- mice [6],reduces fibrosis (FIG. 7A) and inflammation; also recorded: the extent of macrophage accumulation and crown-like structures (white boxes) decreases
